pEC50, pKi: −log10 of the molar value. Calls of active or inactive are those of the source. The rule behind the calls is not given here. Bridge positions count the residues as written; N and C are the ends. Square brackets hold non-standard residues; d marks the D form. Peptide text beside a SMILES is read from it. * marks the point of attachment. X1 = CC(=O)N(C(=O)CCCCCN)[C@@H](C)C(=O)*; S5 = C=CCCC[C@](C)(N)C(=O)O; Sar = CNCC(=O)O
What was measured:
Mus musculus [1] = assay: Neurotoxicity against CF1 albino mouse assessed as motor impairment at 0.1 nmol/5 ul, icv after 0.5 hrs by rotarod test; assay type: toxicity, organism-based; details: in vivo, icv_or_intrathecal
[2] = biological target: T1, Neuropeptide Y receptor type 2 (Homo sapiens, UniProt P49146); assay: Agonist activity at human NPY2R expressed inj CHOK1 cells assessed as inhibition of forskolin-stimulated cAMP production after 30 mins by luminescence assay; assay type: functional, cell-based, CHO-K1
T1 sequence (P49146 whole entry): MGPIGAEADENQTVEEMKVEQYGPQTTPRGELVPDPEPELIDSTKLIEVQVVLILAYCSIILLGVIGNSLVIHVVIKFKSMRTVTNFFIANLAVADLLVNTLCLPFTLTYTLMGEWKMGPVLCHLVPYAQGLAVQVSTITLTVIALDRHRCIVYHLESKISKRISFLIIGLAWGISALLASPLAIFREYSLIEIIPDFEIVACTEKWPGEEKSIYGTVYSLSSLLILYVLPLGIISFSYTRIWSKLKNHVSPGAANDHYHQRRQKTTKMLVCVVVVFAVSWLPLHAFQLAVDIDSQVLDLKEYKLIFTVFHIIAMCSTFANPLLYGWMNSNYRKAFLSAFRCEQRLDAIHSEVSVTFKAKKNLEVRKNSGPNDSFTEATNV

[3] = Half life in rat serum by HPLC analysis; assay type: ADME, cell-free
[4] = n-octanol-water partition coefficient, log D of the compound by shake-flask method; assay type: physicochemical
Mus musculus [5] = assay: Anticonvulsant activity in CF1 albino mouse assessed as protection against 6Hz partial psychomotor seizure at 1 nmol/5 ul, icv after 0.5 hrs relative to control; assay type: functional, organism-based
Galanin receptor type 2 = biological target: T2, Galanin receptor type 2 (Homo sapiens, UniProt O43603); assay: Displacement of euporium-galanin from human GalR2 after 1.5 hrs by DELFIA assay
T2 sequence (O43603 whole entry): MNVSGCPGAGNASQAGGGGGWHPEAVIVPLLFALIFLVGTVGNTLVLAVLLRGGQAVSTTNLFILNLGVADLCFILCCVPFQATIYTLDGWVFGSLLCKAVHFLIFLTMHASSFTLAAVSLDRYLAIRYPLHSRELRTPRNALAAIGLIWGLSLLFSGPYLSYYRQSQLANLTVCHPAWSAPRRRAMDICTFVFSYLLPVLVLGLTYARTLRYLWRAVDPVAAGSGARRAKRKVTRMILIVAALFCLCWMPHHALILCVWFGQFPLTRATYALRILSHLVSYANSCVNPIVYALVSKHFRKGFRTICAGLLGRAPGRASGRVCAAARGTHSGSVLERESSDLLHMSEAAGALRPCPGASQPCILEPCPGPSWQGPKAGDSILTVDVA

Galanin receptor type 1 = biological target: T3, Galanin receptor type 1 (Homo sapiens, UniProt P47211); assay: Displacement of euporium-galanin from human GalR1 after 1.5 hrs by DELFIA assay
T3 sequence (P47211 whole entry): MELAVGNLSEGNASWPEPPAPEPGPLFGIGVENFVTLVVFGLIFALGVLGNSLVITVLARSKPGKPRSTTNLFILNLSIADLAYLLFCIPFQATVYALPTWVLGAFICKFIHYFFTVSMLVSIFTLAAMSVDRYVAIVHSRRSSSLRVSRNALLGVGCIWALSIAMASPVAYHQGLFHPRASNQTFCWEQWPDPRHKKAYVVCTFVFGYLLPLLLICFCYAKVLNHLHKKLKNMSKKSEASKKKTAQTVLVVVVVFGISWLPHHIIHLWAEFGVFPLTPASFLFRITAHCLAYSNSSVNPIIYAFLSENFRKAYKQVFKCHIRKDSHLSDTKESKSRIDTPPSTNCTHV

[6] = n-octanol-water partition coefficient, log D of the compound by HPLC capacity factor method; assay type: physicochemical

Row | pEC50 [2] | half-life [3] [h] | logD [4] | pKi (Galanin receptor type 2) | pKi (Galanin receptor type 1) | chromatographic logD [6] | Structure (SMILES) | Activity (Mus musculus [1]) | Activity (Mus musculus [5])
1 | 6.39 | 1.8 | 0.08 | – | – | – | CC[C@H](C)[C@H](NC(=O)[C@H](Cc1ccc(O)cc1)NC(=O)[C@H](Cc1cnc[nH]1)NC(=O)[C@H](CCCN=C(N)N)NC(=O)[C@H](C)N(C(=O)CCCCCN)C(=O)[C@]1(C)CCC/C=C\CCC[C@](C)(NC(=O)[C@H](Cc2ccc(O)cc2)NC(C)=O)C(=O)N[C@@H](CCCCN)C(=O)N[C@@H](CCCCN)C(=O)N[C@@H](CCCCN)C(=O)N1)C(=O)N[C@@H](CC(N)=O)C(=O)N[C@@H](CC(C)C)C(=O)N[C@@H](CC(C)C)C(=O)N[C@H](C(=O)N[C@@H](CCCN=C(N)N)C(=O)N[C@@H](CCC(N)=O)C(=O)N[C@@H](CCCN=C(N)N)C(=O)N[C@@H](Cc1ccc(O)cc1)C(N)=O)[C@@H](C)O | Non-toxic | –
2 | – | – | – | – | – | – | CC[C@H](C)[C@H](NC(=O)[C@H](Cc1ccc(O)cc1)NC(=O)[C@H](Cc1c[nH]cn1)NC(=O)[C@H](CCCN=C(N)N)NC(=O)[C@H](CC(C)C)NC(=O)[C@H](C)NC(=O)[C@H](CO)NC(=O)[C@H](Cc1ccc(O)cc1)NC(=O)[C@H](Cc1ccc(O)cc1)NC(=O)[C@H](CCCN=C(N)N)NC(=O)[C@H](C)NC(=O)[C@H](CC(C)C)NC(=O)[C@H](CC(=O)O)NC(=O)[C@H](CCC(=O)O)NC(=O)[C@H](C)NC(=O)[C@@H]1CCCN1)C(=O)N[C@@H](CC(N)=O)C(=O)N[C@@H](CC(C)C)C(=O)N[C@H](C(=O)N[C@H](C(=O)N[C@@H](CCCN=C(N)N)C(=O)N[C@@H](CCC(N)=O)C(=O)N[C@@H](CCCN=C(N)N)C(=O)N[C@@H](Cc1ccc(O)cc1)C(=O)O)[C@@H](C)O)[C@@H](C)CC | Non-toxic | inactive
3 | – | 0.13 | – | – | – | – | CC(C)C[C@H](NC(=O)[C@H](CC(C)C)NC(=O)[C@H](Cc1ccc(O)cc1)NC(=O)CNC(=O)[C@H](C)NC(=O)[C@H](CO)NC(=O)[C@H](CC(N)=O)NC(=O)[C@H](CC(C)C)NC(=O)[C@@H](NC(=O)[C@H](Cc1c[nH]c2ccccc12)NC(=O)CN)[C@@H](C)O)C(=O)NCC(=O)N1CCC[C@H]1C(=O)N[C@@H](Cc1cnc[nH]1)C(=O)N[C@@H](C)C(=O)N[C@H](C(N)=O)C(C)C | Non-toxic | inactive
4 | – | – | – | – | – | – | CC[C@H](C)[C@H](NC(=O)[C@H](Cc1ccc(O)cc1)NC(=O)[C@H](Cc1cnc[nH]1)NC(=O)[C@H](CCCNC(=N)N)NC(=O)[C@H](C)N(C(=O)CCCCCN)C(=O)[C@]1(C)CCC/C=C\CCC[C@](C)(NC(=O)[C@H](Cc2ccc(O)cc2)NC(C)=O)C(=O)N[C@@H](CCCCN)C(=O)N[C@@H](CCCCN)C(=O)N[C@@H](CCCCN)C(=O)N1)C(=O)N[C@@H](CC(N)=O)C(=O)N[C@@H](CC(C)C)C(=O)N[C@@H](CC(C)C)C(=O)N[C@H](C(=O)N[C@@H](CCCNC(=N)N)C(=O)N[C@@H](CCC(N)=O)C(=O)N[C@@H](CCCNC(=N)N)C(=O)N[C@@H](Cc1ccc(O)cc1)C(N)=O)[C@@H](C)O | – | Active
5 | – | 2.7 | -0.71 | – | – | – | CC(=O)N[C@@H](C)C(=O)N[C@@H](CCCNC(=N)N)C(=O)N[C@@H](Cc1cnc[nH]1)C(=O)N[C@@H](Cc1ccc(O)cc1)C(=O)N[C@@]1(C)CCC/C=C/CCC[C@@](C)(C(=O)N[C@@H](CCCNC(=N)N)C(=O)N[C@@H](CCC(N)=O)C(=O)N[C@@H](CCCNC(=N)N)C(=O)N[C@@H](Cc2ccc(O)cc2)C(N)=O)NC(=O)[C@H](CC(C)C)NC(=O)[C@H](CC(C)C)NC(=O)[C@H](CC(N)=O)NC1=O (Ac-ARHY[S5]NLL[S5]RQRY-NH2; staple (E) 5-9) | Toxic | Active
6 | – | 15.7 | – | 7.81 | 8.42 | 0.78 | CNCC(=O)N[C@@H](Cc1c[nH]c2ccccc12)C(=O)N[C@H](C(=O)N[C@@H](CC(C)C)C(=O)N[C@@H](CC(N)=O)C(=O)N[C@@H](CO)C(=O)N[C@@H](C)C(=O)NCC(=O)N[C@@H](Cc1ccc(O)cc1)C(=O)N[C@@H](CC(C)C)C(=O)N[C@@H](CC(C)C)C(=O)NCC(=O)N1CCC[C@H]1C(=O)N[C@@]1(C)CCC/C=C\CCC[C@@](C)(C(=O)N[C@@H](CCCCN)C(N)=O)NC(=O)[C@H](CCCCN)NC(=O)[C@H](CCCCN)NC(=O)[C@H](CCCCN)NC1=O)[C@@H](C)O (H-[Sar]WTLNSAGYLLGP[S5]KKK[S5]K-NH2; staple (Z) 14-18) | Non-toxic | Active
7 | – | 6.4 | – | 6.92 | 7.43 | 0.71 | CNCC(=O)N[C@@H](Cc1c[nH]c2ccccc12)C(=O)N[C@H](C(=O)N[C@@H](CC(C)C)C(=O)N[C@@H](CC(N)=O)C(=O)N[C@@H](CO)C(=O)N[C@@]1(C)CCC/C=C/CCC[C@@](C)(C(=O)NCC(=O)N2CCC[C@H]2C(=O)N[C@@H](CCCCN)C(=O)N[C@@H](CCCCN)C(=O)N[C@@H](CCCCN)C(=O)N[C@@H](CCCCN)C(N)=O)NC(=O)[C@H](CC(C)C)NC(=O)[C@H](Cc2ccc(O)cc2)NC(=O)CNC1=O)[C@@H](C)O (H-[Sar]WTLNS[S5]GYL[S5]GPKKKK-NH2; staple (E) 7-11) | Non-toxic | Active
8 | – | 0.57 | -2.13 | – | – | – | CC[C@H](C)[C@H](NC(=O)[C@H](Cc1ccc(O)cc1)NC(=O)[C@H](Cc1cnc[nH]1)NC(=O)[C@H](CCCNC(=N)N)NC(=O)[C@H](C)N(C(C)=O)C(=O)CCCCCN)C(=O)N[C@@H](CC(N)=O)C(=O)N[C@@H](CC(C)C)C(=O)N[C@H](C(=O)N[C@H](C(=O)N[C@@H](CCCNC(=N)N)C(=O)N[C@@H](CCC(N)=O)C(=O)N[C@@H](CCCNC(=N)N)C(=O)N[C@@H](Cc1ccc(O)cc1)C(N)=O)[C@@H](C)O)[C@@H](C)CC (X1-RHYINLITRQRY-NH2) | – | –
